Test results: ChEMBL document CHEMBL4229379, “Synthesis and structure-activity relationship of novel bisindole amidines active against MDR Gram-positive and Gram-negative bacteria” (Eur J Med Chem, 2018)
≈ marks a conversion by molar mass, not a printed value.

What was measured:
Enterococcus faecalis [1] = assay: Antibacterial activity against vancomycin-sensitive Enterococcus faecalis ATCC 29212 after 18 hrs by CLSI broth microdilution method; format: functional; conditions: ATCC 29212, 18 h
Klebsiella pneumoniae [2] = assay: Antibacterial activity against extended-spectrum beta-lactamase deficient Klebsiella pneumoniae 12-4 after 18 hrs by CLSI broth microdilution method; format: functional; conditions: 12-4, 18 h
Pseudomonas aeruginosa [3] = assay: Antibacterial activity against Pseudomonas aeruginosa ATCC 27853 after 18 hrs by CLSI broth microdilution method; format: functional; conditions: ATCC 27853, 18 h
Staphylococcus aureus [4] = assay: Antibacterial activity against methicillin-resistant Staphylococcus aureus ATCC 33591 after 18 hrs by CLSI broth microdilution method; format: functional; conditions: ATCC 33591, 18 h
Proteus mirabilis = assay: Antibacterial activity against Proteus mirabilis 12-6 after 18 hrs by CLSI broth microdilution method; format: functional; conditions: 12-6, 18 h
Staphylococcus aureus [5] = assay: Antibacterial activity against methicillin-sensitive Staphylococcus aureus 15 after 18 hrs by CLSI broth microdilution method; format: functional; conditions: Staphylococcus aureus, 15, 18 h
[6] = test system: Staphylococcus epidermidis; assay: Antibacterial activity against methicillin-sensitive Staphylococcus epidermidis ATCC 12228 after 18 hrs by CLSI broth microdilution method; format: functional; conditions: ATCC 12228, 18 h
[7] = test system: Staphylococcus epidermidis; assay: Antibacterial activity against methicillin-resistant Staphylococcus epidermidis 12-8 after 18 hrs by CLSI broth microdilution method; format: functional; conditions: 12-8, 18 h
Staphylococcus aureus [8] = assay: Antibacterial activity against methicillin-sensitive Staphylococcus aureus 12-28 after 18 hrs by CLSI broth microdilution method; format: functional; conditions: 12-28, 18 h
Enterococcus faecium [9] = assay: Antibacterial activity against vancomycin-resistant Enterococcus faecium ATCC 700221 after 18 hrs by CLSI broth microdilution method; format: functional; conditions: ATCC 700221, 18 h
[10] = Cytotoxicity against HEK293T cells assessed as reduction in cell viability after 48 hrs by MTS assay; format: cell-based, HEK-293T; conditions: human
[11] = test system: Stenotrophomonas maltophilia; assay: Antibacterial activity against Stenotrophomonas maltophilia ATCC 13636 after 18 hrs by CLSI broth microdilution method; format: functional; conditions: ATCC 13636, 18 h
Escherichia coli [12] = assay: Antibacterial activity against extended-spectrum beta-lactamase harboring Escherichia coli 12-15 after 18 hrs by CLSI broth microdilution method; format: functional; conditions: 12-15, 18 h
Providencia rettgeri = assay: Antibacterial activity against Providencia rettgeri ATCC 31052 after 18 hrs by CLSI broth microdilution method; format: functional; conditions: ATCC 31052, 18 h
Enterococcus faecium [13] = assay: Antibacterial activity against vancomycin-sensitive Enterococcus faecium 12-3 after 18 hrs by CLSI broth microdilution method; format: functional; conditions: 12-3, 18 h
Enterococcus faecalis [14] = assay: Antibacterial activity against vancomycin-resistant Enterococcus faecalis ATCC 51299 after 18 hrs by CLSI broth microdilution method; format: functional; conditions: ATCC 51299, 18 h
Klebsiella pneumoniae [15] = assay: Antibacterial activity against extended-spectrum beta-lactamase deficient Klebsiella pneumoniae 7 after 18 hrs by CLSI broth microdilution method; format: functional; conditions: Klebsiella pneumoniae, 7, 18 h
Escherichia coli [16] = assay: Antibacterial activity against extended-spectrum beta-lactamase deficient Escherichia coli 12-14 after 18 hrs by CLSI broth microdilution method; format: functional; conditions: 12-14, 18 h
Enterococcus faecium [17] = assay: Antibacterial activity against vancomycin-resistant Enterococcus faecium 12-1 after 18 hrs by CLSI broth microdilution method; format: functional; conditions: 12-1, 18 h
Escherichia coli [18] = assay: Antibacterial activity against extended-spectrum beta-lactamase deficient Escherichia coli ATCC 25922 after 18 hrs by CLSI broth microdilution method; format: functional; conditions: ATCC 25922, 18 h
Pseudomonas aeruginosa [19] = assay: Antibacterial activity against Pseudomonas aeruginosa PAO1 after 18 hrs by CLSI broth microdilution method; format: functional; conditions: PAO1, 18 h
Pseudomonas aeruginosa [20] = assay: Antibacterial activity against Pseudomonas aeruginosa 12-16 after 18 hrs by CLSI broth microdilution method; format: functional; conditions: 12-16, 18 h
Klebsiella pneumoniae [21] = assay: Antibacterial activity against extended-spectrum beta-lactamase harboring Klebsiella pneumoniae 12-8 after 18 hrs by CLSI broth microdilution method; format: functional; conditions: 12-8, 18 h
Klebsiella aerogenes = assay: Antibacterial activity against Enterobacter aerogenes ATCC 13048 after 18 hrs by CLSI broth microdilution method; format: functional; conditions: ATCC 13048, 18 h
Proteus vulgaris = assay: Antibacterial activity against Proteus vulgaris ATCC 29905 after 18 hrs by CLSI broth microdilution method; format: functional; conditions: ATCC 29905, 18 h
Citrobacter freundii = assay: Antibacterial activity against Citrobacter freundii ATCC 43864 after 18 hrs by CLSI broth microdilution method; format: functional; conditions: ATCC 43864, 18 h
Staphylococcus aureus [22] = assay: Antibacterial activity against methicillin-resistant Staphylococcus aureus 12-33 after 18 hrs by CLSI broth microdilution method; format: functional; conditions: 12-33, 18 h
Staphylococcus aureus [23] = assay: Antibacterial activity against methicillin-sensitive Staphylococcus aureus ATCC 29213 after 18 hrs by CLSI broth microdilution method; format: functional; conditions: ATCC 29213, 18 h
[24] = test system: Acinetobacter calcoaceticus; assay: Antibacterial activity against Acinetobacter calcoaceticus ATCC 19606 after 18 hrs by CLSI broth microdilution method; format: functional; conditions: ATCC 19606, 18 h
Klebsiella pneumoniae [25] = assay: Antibacterial activity against extended-spectrum beta-lactamase harboring Klebsiella pneumoniae ATCC 700603 after 18 hrs by CLSI broth microdilution method; format: functional; conditions: Klebsiella pneumoniae, 700603, 18 h
Enterococcus faecalis [26] = assay: Antibacterial activity against vancomycin-sensitive Enterococcus faecalis 12-5 after 18 hrs by CLSI broth microdilution method; format: functional; conditions: 12-5, 18 h
Enterobacter cloacae = assay: Antibacterial activity against Enterobacter cloacae ATCC 43560 after 18 hrs by CLSI broth microdilution method; format: functional; conditions: ATCC 43560, 18 h
Enterococcus faecalis [27] = assay: Antibacterial activity against vancomycin-resistant Enterococcus faecalis 09-9 after 18 hrs by CLSI broth microdilution method; format: functional; conditions: 09-9, 18 h
[28] = test system: Staphylococcus epidermidis; assay: Antibacterial activity against methicillin-sensitive Staphylococcus epidermidis 12-6 after 18 hrs by CLSI broth microdilution method; format: functional; conditions: 12-6, 18 h
Escherichia coli [29] = assay: Antibacterial activity against extended-spectrum beta-lactamase deficient Escherichia coli 1515 after 18 hrs by CLSI broth microdilution method; format: functional; conditions: Escherichia coli, 1515, 18 h
Klebsiella pneumoniae [30] = assay: Antibacterial activity against new delhi metallo-beta-lactamase-1 harboring Klebsiella pneumoniae ATCC BAA-2146 after 18 hrs by CLSI broth microdilution method; format: functional; conditions: ATCC BAA-2146, 18 h
Serratia marcescens = assay: Antibacterial activity against Serratia marcescens ATCC 21074 after 18 hrs by CLSI broth microdilution method; format: functional; conditions: ATCC 21074, 18 h

Row | Compound | MIC (Enterococcus faecalis [1]) [mg/L] | MIC (Klebsiella pneumoniae [2]) [mg/L] | MIC (Pseudomonas aeruginosa [3]) [mg/L] | MIC (Staphylococcus aureus [4]) [mg/L] | MIC (Proteus mirabilis) [mg/L] | MIC (Staphylococcus aureus [5]) [mg/L] | MIC [6] [mg/L] | MIC [7] [mg/L] | MIC (Staphylococcus aureus [8]) [mg/L] | MIC (Enterococcus faecium [9]) [mg/L] | CC50 at 48 h [10] [mg/L] | MIC [11] [mg/L] | MIC (Escherichia coli [12]) [mg/L] | MIC (Providencia rettgeri) [mg/L] | MIC (Enterococcus faecium [13]) [mg/L] | MIC (Enterococcus faecalis [14]) [mg/L] | MIC (Klebsiella pneumoniae [15]) [mg/L] | MIC (Escherichia coli [16]) [mg/L] | MIC (Enterococcus faecium [17]) [mg/L] | MIC (Escherichia coli [18]) [mg/L] | further results
1 | N=C(c1ccc2cc(-c3ccc(-c4cc5ccc(C(=N)N6CC=CC6)cc5[nH]4)cc3)[nH]c2c1)N1CC=CC1 | 8 (≈ 16.1 µM) | 16 (≈ 32.2 µM) | > 128 | 2 (≈ 4.03 µM) | 64 (≈ 129 µM) | 4 (≈ 8.05 µM) | 1 (≈ 2.01 µM) | 4 (≈ 8.05 µM) | 4 (≈ 8.05 µM) | 16 (≈ 32.2 µM) | 12.4 (≈ 24.9 µM) | 32 (≈ 64.4 µM) | 8 (≈ 16.1 µM) | 16 (≈ 32.2 µM) | 16 (≈ 32.2 µM) | 8 (≈ 16.1 µM) | 8 (≈ 16.1 µM) | 16 (≈ 32.2 µM) | 16 (≈ 32.2 µM) | 8 (≈ 16.1 µM) | MIC (Pseudomonas aeruginosa [19]): > 128 mg/L; MIC (Pseudomonas aeruginosa [20]): > 128 mg/L; MIC (Klebsiella pneumoniae [21]): 16 mg/L (≈ 32.2 µM); MIC (Klebsiella aerogenes): 8 mg/L (≈ 16.1 µM); MIC (Proteus vulgaris): 32 mg/L (≈ 64.4 µM); MIC (Citrobacter freundii): 8 mg/L (≈ 16.1 µM); MIC (Staphylococcus aureus [22]): 4 mg/L (≈ 8.05 µM); MIC (Staphylococcus aureus [23]): 4 mg/L (≈ 8.05 µM); MIC [24]: 32 mg/L (≈ 64.4 µM); MIC (Klebsiella pneumoniae [25]): 32 mg/L (≈ 64.4 µM); MIC (Enterococcus faecalis [26]): 8 mg/L (≈ 16.1 µM); MIC (Enterobacter cloacae): 8 mg/L (≈ 16.1 µM); MIC (Enterococcus faecalis [27]): 8 mg/L (≈ 16.1 µM); MIC [28]: 2 mg/L (≈ 4.03 µM); MIC (Escherichia coli [29]): 16 mg/L (≈ 32.2 µM); MIC (Klebsiella pneumoniae [30]): 8 mg/L (≈ 16.1 µM); MIC (Serratia marcescens): > 128 mg/L
2 | CNC(=N)c1ccc2cc(-c3cncc(-c4cc5ccc(C(=N)NC)cc5[nH]4)c3)[nH]c2c1 | > 64 | > 64 | > 64 | > 64 | > 64 | > 64 | 4 (≈ 9.49 µM) | 8 (≈ 19 µM) | > 64 | > 64 | > 100 | > 64 | > 64 | > 64 | > 64 | > 64 | > 64 | > 64 | > 64 | > 64 | MIC (Pseudomonas aeruginosa [19]): > 64 mg/L; MIC (Pseudomonas aeruginosa [20]): > 64 mg/L; MIC (Klebsiella pneumoniae [21]): > 64 mg/L; MIC (Klebsiella aerogenes): > 64 mg/L; MIC (Proteus vulgaris): > 64 mg/L; MIC (Citrobacter freundii): > 64 mg/L; MIC (Staphylococcus aureus [22]): > 64 mg/L; MIC (Staphylococcus aureus [23]): > 64 mg/L; MIC [24]: > 64 mg/L; MIC (Klebsiella pneumoniae [25]): > 64 mg/L; MIC (Enterococcus faecalis [26]): > 64 mg/L; MIC (Enterobacter cloacae): > 64 mg/L; MIC (Enterococcus faecalis [27]): > 64 mg/L; MIC [28]: 8 mg/L (≈ 19 µM); MIC (Escherichia coli [29]): > 64 mg/L; MIC (Klebsiella pneumoniae [30]): > 64 mg/L; MIC (Serratia marcescens): > 64 mg/L
